Paper PMC3465505 (Antiviral research, 2012)
Where two headings read alike, the source gives them in different places. Marks after values point to notes of the source that are not given here.

Legend:
SV40 TAg ATPase activity = SV40 TAg ATPase activity (Simian virus 40, UniProt P03070); experiment: biochemical; format: biochemical; settings: for inhibition of TAg ATPase activity (SAR screen): 30 μM compound; for potency of TAg ATPase inhibition compared with MAL2-11B: 100 μM compound; for inhibition at 3 µM: read-out: inhibition of TAg ATPase activity; for inhibition at 30 µM: read-out: inhibition of the ATPase activity of TAg
SV40 TAg [1] = target: T1, SV40 TAg (Simian virus 40, UniProt P03070); experiment: TAg aggregation under ATPase assay conditions; settings: utilized ATPase assay conditions
SV40 TAg [2] = target: T1, SV40 TAg; format: biochemical
BKV = BKV DNA replication by qPCR in Vero cells; format: cell-based, BK virus; settings: 10 μM, 5 d
SV40 [3] = experiment: SV40 DNA replication by qPCR in CV1 cells; format: cell-based, Simian Virus 40; settings: 48 hpi; for inhibition of DNA replication: 30 μM
CV1 cells = experiment: MTS viability assay; format: cell-based, monkey; settings: CV1 cells ~90% confluency, 48 h
SV40 [4] = experiment: SV40 plaque assay in CV1 cells; format: cell-based, Simian Virus 40; settings: 2 days; for inhibition of viral replication relative to the DMSO control (plaque assay): 30 μM
[5] = TAg in the presence of 3 μM compound

T1 sequence (P03070 whole entry): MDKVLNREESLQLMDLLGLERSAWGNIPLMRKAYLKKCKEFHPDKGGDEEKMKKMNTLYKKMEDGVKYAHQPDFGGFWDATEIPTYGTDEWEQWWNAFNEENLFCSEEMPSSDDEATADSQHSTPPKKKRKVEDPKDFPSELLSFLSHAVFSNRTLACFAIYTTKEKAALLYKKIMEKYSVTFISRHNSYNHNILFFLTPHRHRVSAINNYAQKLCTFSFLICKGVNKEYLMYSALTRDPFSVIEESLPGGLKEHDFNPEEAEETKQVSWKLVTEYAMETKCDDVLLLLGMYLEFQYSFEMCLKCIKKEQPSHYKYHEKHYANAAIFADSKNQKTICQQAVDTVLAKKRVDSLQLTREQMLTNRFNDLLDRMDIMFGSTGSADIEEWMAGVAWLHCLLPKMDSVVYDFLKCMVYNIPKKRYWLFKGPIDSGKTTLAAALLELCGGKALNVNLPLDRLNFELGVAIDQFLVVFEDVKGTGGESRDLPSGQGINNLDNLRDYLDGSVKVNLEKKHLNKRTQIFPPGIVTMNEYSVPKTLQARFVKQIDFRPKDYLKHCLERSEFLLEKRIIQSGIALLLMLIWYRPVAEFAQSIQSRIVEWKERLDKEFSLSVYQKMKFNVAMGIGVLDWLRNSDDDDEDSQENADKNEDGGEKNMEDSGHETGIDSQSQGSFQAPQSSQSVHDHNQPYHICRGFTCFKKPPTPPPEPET
Chain of SV40 TAg ATPase activity (P03070 whole entry): as above

Oc1c(Br)cc(Cl)cc1Cc1cc(Cl)cc(Br)c1O [6,6'-methylenebis(2-bromo-4-chlorophenol)]
inhibition of TAg ATPase activity (SAR screen) (SV40 TAg ATPase activity): inhibited TAg ATPase activity

O=C1C(Cl)=C(Cl)C(=O)C(Cl)=C1Cl [chloranil]
potency of TAg ATPase inhibition compared with MAL2-11B (SV40 TAg ATPase activity): significantly more potent inhibitors than MAL2-11B | TAg aggregation (SV40 TAg [1]): caused TAg to aggregate

Nc1ncnc2c1ncn2[C@@H]1O[C@H](COP(=O)(O)OP(=O)(O)O)[C@@H](O)[C@H]1O [ADP]
Vmax (SV40 TAg [2]; TAg in the presence of 150 μM ADP): 2.9 ^‡ pmol/min

Oc1c(Cl)cc(Cl)c(Cl)c1Cc1c(O)c(Cl)cc(Cl)c1Cl [hexachlorophene]
Vmax (SV40 TAg [2]; [5]): 6.6 ^‡ pmol/min | inhibition of BKV replication (BKV): maintained its potent inhibition | potency of TAg ATPase inhibition compared with MAL2-11B (SV40 TAg ATPase activity): significantly more potent inhibitors than MAL2-11B | inhibition at 3 µM (SV40 TAg ATPase activity): ~50% | inhibition at 30 µM (SV40 TAg ATPase activity): ~80% | inhibition of DNA replication (SV40 [3]): ~ 100 fold | MI50 95% confidence range based on the sigmoidal fit (CV1 cells): 29 to 71 µM | MI50 (metabolic index-50) (CV1 cells): 55 µM | inhibition of viral replication relative to the DMSO control (plaque assay) (SV40 [4]): ~100 fold

CC1=C(C(=O)OCc2ccccc2)C(c2ccc(-c3ccccc3)cc2)NC(=O)N1CCCCCC(=O)O (stereo not drawn) [MAL2-11B]
inhibition of DNA replication in culture (SV40 [3]; 100 μM): ~ 60% | reduction of the number of plaques (SV40 [4]; 100 μM): ~60%

Oc1c(Br)cc(Cl)cc1Sc1cc(Cl)cc(Br)c1O [6,6'-thiobis(2-bromo-4-chlorophenol)]
inhibition of TAg ATPase activity (SAR screen) (SV40 TAg ATPase activity): inhibited TAg ATPase activity

Oc1c(Cl)cc(Cl)cc1Sc1cc(Cl)cc(Cl)c1O [bithionol, Bithionol]
Vmax (SV40 TAg [2]; [5]): 10 ^‡ pmol/min | inhibition of BKV replication (BKV): somewhat less effective | potency of TAg ATPase inhibition compared with MAL2-11B (SV40 TAg ATPase activity): significantly more potent inhibitors than MAL2-11B | inhibition at 3 µM (SV40 TAg ATPase activity): ~50% | inhibition at 30 µM (SV40 TAg ATPase activity): ~80% | inhibition of DNA replication (SV40 [3]): ~ 100 fold | MI50 (metabolic index-50) (CV1 cells): 68 µM | inhibition of viral replication relative to the DMSO control (plaque assay) (SV40 [4]): ~100 fold
